Tests used:
Type in all cases: cell-based
[1] = target: T1, AR protein (Homo sapiens, UniProt P10275, T878A); assay: AR protein degradation in LNCaP cells (Western blot); conditions: 8 hours; for percent AR protein degradation at a fixed concentration at 0.01 µM / Degradation of AR protein in LNCaP cells, 10 nM (%): 10 nM; for percent AR protein degradation at a fixed concentration at 0.1 µM / Degradation of AR protein in LNCaP cells, 100 nM (%): 100 nM
T1 construct: host or cells: LNCaP FGC
T1 sequence (P10275 1-920 T878A): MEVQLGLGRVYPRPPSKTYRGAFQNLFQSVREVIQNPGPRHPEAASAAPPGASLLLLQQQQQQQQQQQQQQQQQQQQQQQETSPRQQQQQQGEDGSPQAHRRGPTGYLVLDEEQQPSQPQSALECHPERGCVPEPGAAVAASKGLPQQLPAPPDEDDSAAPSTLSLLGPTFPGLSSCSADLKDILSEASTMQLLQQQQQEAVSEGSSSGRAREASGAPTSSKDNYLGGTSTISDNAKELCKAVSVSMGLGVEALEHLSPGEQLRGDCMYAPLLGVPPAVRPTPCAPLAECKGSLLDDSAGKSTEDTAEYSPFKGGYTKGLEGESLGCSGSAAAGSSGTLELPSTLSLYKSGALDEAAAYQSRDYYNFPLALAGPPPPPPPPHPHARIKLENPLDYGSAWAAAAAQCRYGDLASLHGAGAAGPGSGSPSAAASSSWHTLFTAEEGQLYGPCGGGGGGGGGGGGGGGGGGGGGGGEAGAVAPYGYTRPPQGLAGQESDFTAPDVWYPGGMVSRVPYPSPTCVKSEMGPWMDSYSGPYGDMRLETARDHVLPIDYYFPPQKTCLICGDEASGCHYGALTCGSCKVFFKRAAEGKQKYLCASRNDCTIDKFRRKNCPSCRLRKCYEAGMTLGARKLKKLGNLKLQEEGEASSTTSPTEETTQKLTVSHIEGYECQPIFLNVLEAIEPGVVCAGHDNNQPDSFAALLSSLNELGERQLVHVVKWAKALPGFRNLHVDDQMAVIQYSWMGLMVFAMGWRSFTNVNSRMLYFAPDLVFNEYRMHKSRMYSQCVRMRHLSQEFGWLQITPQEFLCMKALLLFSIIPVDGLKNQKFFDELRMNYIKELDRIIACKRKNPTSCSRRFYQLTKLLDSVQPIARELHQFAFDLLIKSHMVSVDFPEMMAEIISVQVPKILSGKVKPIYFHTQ
Protocol: At the same time, the corresponding solvent control was set and cultured for 8 hours. After 8 hours of culture, the culture medium was removed, the cells were washed with PBS, and RIPA lysis buffer containing 1% Protease Inhibitor Cocktail was added. After lysis and centrifugation, the total protein extract was obtained, and the protein concentration in the extract was detected by BCA method. Protein electrophoresis was performed using SDS-PAGE, and then the protein was transferred to a PVDF (Millipore Sigma catalog number PSRP010R5) membrane at a constant voltage of 100V for 60 minutes. The PVDF membrane was placed in a 5% milk powder 1 ×TBST solution and blocked at room temperature for 1 hour. […] The primary antibody solution was discarded and the PVDF membrane was washed with 1×TBST for 5 minutes each time, for three times. […] The secondary antibody solution was discarded and the PVDF membrane was washed with 1 ×TBST for 5 minutes each time, for three times. A dual-color infrared laser imaging system (Licor catalog number Odyssey CLX) was used for Western membrane imaging. The Image Studio software was used to analyze the grayscale of the bands. GAPDH protein bands were also detected for each sample as the reference. The AR protein degradation rate of the compound and the positive control sample was calculated based on the grayscale of the protein bands.

[2] = test system: LNCaP cells; assay: Inhibition of LNCaP cell proliferation (WST-8); conditions: Homo sapiens, LNCaP FGC cells, 96 hours
Protocol: The inhibitory activity of compounds disclosed in the present invention on LNCaP cell proliferation
The cells were cultured overnight in a 37°C, 5% CO2 cell incubator. […] The final concentration of the compound was 9 concentration points of 5-fold serial dilution starting from 10 µM. […] The cells were cultured in a cell culture incubator at 37°C and 5% CO2 for 96 hours. On the sixth day, the 96-well cell culture plate was removed, and 1/10 volume of WST-8 (Beytime, C0040) reagent was added to each well. The absorbance at 450 nm was detected using a microplate reader (TECAN, F50).

[3] = test system: VCaP cells; assay: Inhibition of VCaP cell proliferation (WST-8); conditions: Homo sapiens, 168 hours
Protocol: On the first day of the experiment, VCaP cells were seeded at a density of 15,000 cells/well in a 96-well plate using DMEM medium containing 10% fetal bovine serum, with 100µL of cell suspension per well, and cultured overnight in a cell incubator at 37°C and 5% CO2. On the second day, 100µL of the compound of the present invention and the positive control ARV-110 (source: Anaiji) prepared in culture medium at different concentrations were added to each well. The final concentration of the compound was 9 concentration points of 5-fold serial dilution starting from 10 µM. […] On the ninth day, the 96-well cell culture plate was removed and 1/10 volume of WST-8 (Beytime, C0040) reagent was added to each well. The absorbance at 450nm was measured using a microplate reader (TECAN, F50).

SMILES | percent AR protein degradation at a fixed concentration at 0.01 µM [1] [%] | percent AR protein degradation at a fixed concentration at 0.1 µM [1] [%] | IC50 [2] [µM] | IC50 [3] [µM] | Degradation of AR protein in LNCaP cells, 10 nM (%) [1] [%] | Degradation of AR protein in LNCaP cells, 100 nM (%) [1] [%]
C[C@H]1CC2(CCN(c3ccc(N4CCC(CN5CCC6(CC5)CCC5(CC6)COc6c5ccc5c6CN(C6CCC(=O)NC6=O)C5=O)CC4)cc3)CC2)CN1c1ccc(C#N)c(Cl)c1 (stereo partly drawn) [A-P-8, (S)-1'-((1-(4-(6-chloro-7-cyanospiro-spiro[tryptophan-3,4'-piperidin]-1'-yl)benzoyl)piperidin-4-yl)methyl)-N-(2,6-dioxopiperidin-3-yl)-7-fluoro-spiro[tryptophan-2,4'-pyridyl]-6-carboxamide] | -4 | 63 | 0.2 | 0.005 |  | 
COc1cc(O[C@H]2C(C)(C)[C@H](NC(=O)c3ccc(N4CCC(CN5CCN6c7cc(F)c(C(=O)N[C@H]8CCC(=O)NC8=O)cc7OC[C@H]6C5)CC4)cc3)C2(C)C)ccc1C#N [A-P-63] |  |  | 0.24 | 0.39 | 27 | 68
C[C@H]1CC2(CCN(c3ccc(N4CCC(CN5CC6(CCC7(CC6)COc6c7ccc7c6CN(C6CCC(=O)NC6=O)C7=O)C5)CC4)cc3)CC2)CN1c1ccc(C#N)c(Cl)c1 (stereo partly drawn) [A-P-6, 2-chloro-4-((3S)-8-(4-(4-((7'-(2,6-dioxopiperidin-3-yl)-6'-oxo-7',8'-dihydro-2'H,6'H-dipyrazole[azetidine-3,1'-cyclohexane-4',3'-furo[2,3-e]isoindol]-1-yl)methyl)piperidin-1-yl)phenyl)-3-methyl-2,8-diazaspiro[4.5]decan-2-yl)benzonitrile] |  |  | 1.02 | 0.00016 | 58 | 60

More lines, main results first:

percent AR protein degradation at a fixed concentration at 0.01 µM [1] [%] | percent AR protein degradation at a fixed concentration at 0.1 µM [1] [%] | IC50 [2] [µM] | IC50 [3] [µM] | SMILES | Degradation of AR protein in LNCaP cells, 10 nM (%) [1] [%] | Degradation of AR protein in LNCaP cells, 100 nM (%) [1] [%]
 |  | 0.44 | 0.0055 | CC1(C)[C@H](NC(=O)c2ccc(N3CCC(CN4CCN5c6ccc(C(=O)N[C@H]7CCC(=O)NC7=O)cc6OC[C@H]5C4)CC3)cc2)C(C)(C)[C@H]1Oc1ccc(C#N)c(Cl)c1 [A-P-77] | 20 | 62
 |  | 0.95 | 1.05 | CC1(CN2CCC3(CCc4cc(C(=O)N[C@H]5CCC(=O)NC5=O)c(F)cc4O3)CC2)CCN(c2ccc(C(=O)N[C@H]3C(C)(C)[C@H](Oc4ccc(C#N)c(Cl)c4)C3(C)C)cc2)CC1 [A-P-55] | -15 | 15
-11 | -3 | 0.14 | 1.32 | N#Cc1cc2c(cc1Cl)OC1(CCN(C(=O)c3ccc(N4CCC(CN5CCC6(CCc7cc(C(=O)N[C@H]8CCC(=O)NC8=O)c(F)cc7O6)CC5)CC4)cc3)CC1)CO2 [A-P-53, (S)-1'-((1-(4-(7-chloro-6-cyano-3H-spiro[benzo[b][1,4]dioxane-2,4'-piperidin]-1'-carbonyl)phenyl)piperidin-4-yl)methyl)-N-(2,6-dioxopiperidin-3-yl)-7-fluorospiro[chroman-2,4'-piperidin]-6-carboxamide] |  | 
4 | 15 | 0.89 | 3.75 | N#Cc1cc2c(cc1Cl)OC1(CCN(c3ccc(C(=O)N4CCC(CN5CCC6(CCc7cc(C(=O)N[C@H]8CCC(=O)NC8=O)c(F)cc7O6)CC5)CC4)cc3)CC1)CO2 [A-P-46, (S)-1'-((1-(4-(7-chloro-6-cyano-3H-spiro[benzo[b][1,4]dioxo-2,4'-piperidin]-1'-yl)benzoyl)piperidin-4-yl)methyl)-N-(2,6-dioxopiperidin-3-yl)-7-fluorospiro[chroman-2,4'-piperidin]-6-carboxamide] |  | 
